Results: ChEMBL document CHEMBL1201862, “PubChem BioAssay data set” (2004)
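Tested at 5 concentrations; 48 h exposure; 96-well plates; endpoints linearly interpolated, else capped at highest concentration. Abbreviation: GI50, concentration required for 50% inhibition of growth.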 Active and inactive are the calls of the source. Rule as the data show it: active = GI50 up to about 1.1 µM and inactive = higher.

Experiments:
Assay in all cases: growth of human tumour cells (NCI), 48 h
[1] = system: SNB-75
[2] = system: HCC 2998
[3] = system: CAKI-1
[4] = system: KM12
[5] = system: HOP-62
[6] = system: NCI-H226
[7] = system: DMS-273
[8] = system: OVCAR-5
[9] = system: HOP-92
[10] = system: 786-0
[11] = system: UACC-257
[12] = system: M14
[13] = system: LOX IMVI
[14] = system: SF-539
[15] = system: OVCAR-3
[16] = system: U-251
[17] = system: MOLT-4
[18] = system: HT-29
[19] = system: HL-60
[20] = system: A498

Measured: GI50

Cn1cc2ccccc2c1-c1nc(F)nc(Oc2ccc3c(c2)CC[C@@H]2C3CC[C@]3(C)C(O)CCC23)n1 (stereo partly specified)
inactive: [1] 14.2 µM | [2] 19.9 µM | [3] > 10 µM | [4] > 10 µM | [5] 16.7 µM | [6] 52.7 µM | [7] 19.8 µM | [8] 18.6 µM | [9] 18.4 µM | [10] 16.9 µM | [11] 18.8 µM | [12] 15.9 µM | [13] 15.8 µM | [14] 17.4 µM | [15] 17.7 µM | [16] 12 µM | [17] 17.6 µM

O=C(O)[C@H](NS(=O)(=O)c1ccc([N+](=O)[O-])cc1)c1ccccc1
inactive: [1] > 100 µM | [2] > 100 µM | [3] > 100 µM | [18] > 100 µM | [4] > 100 µM | [5] > 100 µM | [6] > 100 µM | [7] > 100 µM | [8] > 100 µM | [9] > 100 µM | [10] > 100 µM | [11] > 100 µM | [12] > 100 µM | [13] > 100 µM | [14] > 100 µM | [15] > 100 µM | [16] > 100 µM | [17] > 100 µM

CCCCC1=CC1(C#N)[N+](=O)[O-] (stereo unspecified)
inactive: [1] 39.9 µM | [2] > 100 µM | [3] > 100 µM | [19] > 10 µM | [18] > 100 µM | [4] > 100 µM | [5] > 100 µM | [6] > 100 µM | [8] > 100 µM | [9] 48.9 µM | [10] 72.4 µM | [11] > 100 µM | [12] 30.8 µM | [13] 31.3 µM | [20] 76.2 µM | [14] > 100 µM | [15] > 100 µM | [16] > 100 µM | [17] 23.3 µM

C=C[C@]1(C)C[C@@H](OC(=O)CO)[C@@]2(C)[C@H](C)CC[C@]3(CCC(=O)[C@H]32)[C@@H](C)[C@@H]1O
inactive: [1] > 74 µM | [2] 72.9 µM | [3] > 100 µM | [19] 49.8 µM | [18] > 100 µM | [4] > 100 µM | [5] 71.8 µM | [6] > 100 µM | [8] > 100 µM | [9] > 86.1 µM | [10] > 100 µM | [11] > 76.6 µM | [12] > 78.9 µM | [13] > 31.6 µM | [20] > 54.6 µM | [14] > 100 µM | [15] > 60.1 µM | [16] > 79.3 µM | [17] 37.5 µM

COC1CC(OC2CCC3(C)C(=CCC4C3C(OC(C)=O)C(OC(=O)CC(C)C)C3(C)C(C(C)=O)CCC43O)C2)OC(C)C1OC1CC(OC)C(OC2CC(OC)C(OC3OC(C)C(O)C(OC)C3O)C(C)O2)C(C)O1 (stereo unspecified)
inactive: [1] 24.4 µM | [2] 24.4 µM | [3] 44 µM | [19] 14.9 µM | [18] 19.9 µM | [4] 33.1 µM | [5] > 100 µM | [6] 30.5 µM | [8] 86.7 µM | [9] 22.5 µM | [10] 24.9 µM | [11] 28.8 µM | [12] 38.7 µM | [13] 20.2 µM | [20] > 100 µM | [14] 21.9 µM | [15] 43.9 µM | [16] 37.8 µM | [17] 23.8 µM

NC(=S)N/N=C1/CCCC2CCCC[C@@H]12 (stereo partly specified)
inactive: [1] > 100 µM | [2] > 100 µM | [3] > 100 µM | [19] > 100 µM | [18] > 100 µM | [4] > 100 µM | [5] > 100 µM | [6] > 100 µM | [8] > 100 µM | [9] > 100 µM | [10] > 100 µM | [11] > 100 µM | [12] > 100 µM | [13] > 100 µM | [20] > 100 µM | [14] > 100 µM | [15] > 100 µM | [16] > 100 µM | [17] > 100 µM

COc1cc(O)c2c(=O)cc(C3(OC(C)=O)C=CC(OC4OC(CO)C(O)C(O)C4O)C=C3)oc2c1 (stereo unspecified)
inactive: [1] > 100 µM | [2] > 100 µM | [3] > 100 µM | [19] > 100 µM | [18] > 100 µM | [4] > 100 µM | [5] > 100 µM | [6] > 100 µM | [8] > 100 µM | [9] > 100 µM | [10] > 100 µM | [11] > 100 µM | [12] > 100 µM | [13] > 100 µM | [20] > 100 µM | [14] > 100 µM | [15] > 100 µM | [16] > 100 µM | [17] > 100 µM

COC1(C)CP(=O)(OC(C)C)CC(C)=C1Cl (stereo unspecified)
inactive: [1] 46.9 µM | [2] 27 µM | [3] 17 µM | [19] 10.9 µM | [18] 12.3 µM | [4] 15.5 µM | [5] 17.9 µM | [6] 12.5 µM | [8] 18.8 µM | [9] 11.2 µM | [10] 19 µM | [11] 16.9 µM | [12] 13.7 µM | [13] 11.7 µM | [20] 9.42 µM | [14] 10.7 µM | [15] 10.7 µM | [16] 10.6 µM | [17] 22.2 µM

O=c1[nH]c(=O)n(C/C=C/CBr)nc1Br
inactive: [1] 12 µM | [2] 14.9 µM | [3] 11.9 µM | [19] 5.87 µM | [18] 12.9 µM | [4] 14.9 µM | [5] 21.9 µM | [6] 13.9 µM | [8] 16.9 µM | [9] 13.4 µM | [10] 12.6 µM | [11] 12.3 µM | [12] 13.9 µM | [13] 1.81 µM | [20] 13.5 µM | [14] 14 µM | [15] 11.6 µM | [16] 9.4 µM | [17] 16 µM

CCCCC(C(=O)NCCNC(=O)CCC(=O)N(C)O)C(=O)NCCNC(=O)CCC(=O)N(C)O
inactive: [1] > 100 µM | [2] > 100 µM | [3] > 100 µM | [19] > 100 µM | [18] > 100 µM | [4] > 100 µM | [5] > 100 µM | [6] > 100 µM | [8] > 100 µM | [9] > 100 µM | [10] > 100 µM | [11] > 100 µM | [12] > 100 µM | [13] > 100 µM | [20] > 100 µM | [14] > 100 µM | [15] > 100 µM | [16] > 100 µM | [17] > 100 µM

O=C1C(c2ccc([N+](=O)[O-])cc2)=[N+]([O-])c2ccc([N+](=O)[O-])cc21
inactive: [1] 62.1 µM | [19] 19.5 µM | [18] 73.1 µM | [4] 74 µM | [6] 37.2 µM | [7] 69.7 µM | [8] > 100 µM | [10] > 100 µM | [12] 96.2 µM | [13] 46.5 µM | [14] 52.1 µM | [15] 17.3 µM | [16] 49.9 µM | [17] 27 µM
